Measurements reported in ChEMBL document CHEMBL1201862, “PubChem BioAssay data set” (2004).
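Cultured in 96-well plates, cells were exposed to test compound for 48 hours across five concentrations. Abbreviation: GI50, concentration required for 50% inhibition of growth.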 The source made the active and inactive calls. Rule as the data show it: active = GI50 up to about 1.1 µM and inactive = higher.

Legend:
Experiment in all cases: NCI tumour cell line growth inhibition, 48 h
[1] = system: NCI-H23
[2] = system: TK-10
[3] = system: SK-MEL-5
[4] = system: Hs-578T
[5] = system: K562
[6] = system: HL-60
[7] = system: SF-539
[8] = system: CAKI-1
[9] = system: NCI-H460
[10] = system: DU-145
[11] = system: ACHN
[12] = system: MDA-N
[13] = system: LOX IMVI

Row | Compound | GI50 [1] | GI50 [2] | GI50 [3] | GI50 [4] | GI50 [5] | GI50 [6] | GI50 [7] | GI50 [8] | GI50 [9] | GI50 [10] | GI50 [11] | GI50 [12] | GI50 [13]
1 | CCOC(=O)/C(=N/Nc1ccc(Cl)cc1)N1C(=S)N(C)N=C(C)C=C1S | 39 µM (inactive) | 30.5 µM (inactive) | > 100 µM (inactive) | 37.1 µM (inactive) | > 100 µM (inactive) | > 100 µM (inactive) | 57.1 µM (inactive) | 54.5 µM (inactive) | 26.7 µM (inactive) | > 100 µM (inactive) | > 100 µM (inactive) | – | –
2 | CCCC(=O)Nc1cc(/C=C/C(=O)N2CC(CCl)c3c2cc(OCc2ccccc2)c2[nH]cc(C)c32)n(C)c1 (centres undefined) | 0.0139 µM (active) | 0.533 µM (active) | 0.02 µM (active) | 0.14 µM (active) | 0.0373 µM (active) | 0.0259 µM (active) | 0.0472 µM (active) | 0.0295 µM (active) | 0.0147 µM (active) | 0.0194 µM (active) | 0.013 µM (active) | 0.249 µM (active) | 0.0817 µM (active)
3 | Cc1sc(N)c(S(=O)(=O)c2ccccc2)c1C | > 100 µM (inactive) | > 100 µM (inactive) | > 100 µM (inactive) | > 100 µM (inactive) | > 100 µM (inactive) | > 100 µM (inactive) | 5.13 µM (inactive) | > 100 µM (inactive) | > 100 µM (inactive) | > 100 µM (inactive) | > 100 µM (inactive) | – | –
4 | Cc1ccc2c3c4c(ccc13)C(C)(C)OC4=C(C(C)C)C2=O | 70.5 µM (inactive) | 67 µM (inactive) | 32.2 µM (inactive) | 8.36 µM (inactive) | 59.3 µM (inactive) | 16.6 µM (inactive) | > 100 µM (inactive) | > 100 µM (inactive) | 31.8 µM (inactive) | > 100 µM (inactive) | 84.5 µM (inactive) | > 100 µM (inactive) | –
5 | COc1ccc2cc(/C=N/NC(=O)Nc3ccccc3)ccc2c1 | > 100 µM (inactive) | > 100 µM (inactive) | > 100 µM (inactive) | > 100 µM (inactive) | > 100 µM (inactive) | > 100 µM (inactive) | – | > 100 µM (inactive) | > 100 µM (inactive) | > 100 µM (inactive) | – | > 100 µM (inactive) | > 100 µM (inactive)
6 | COc1cc(N/N=C/C#N)cc(OC)c1OC | 4.34 µM (inactive) | > 10 µM (inactive) | > 10 µM (inactive) | > 10 µM (inactive) | 2.44 µM (inactive) | 2.12 µM (inactive) | > 10 µM (inactive) | 4.07 µM (inactive) | > 10 µM (inactive) | > 10 µM (inactive) | 4.86 µM (inactive) | > 10 µM (inactive) | 1.54 µM (inactive)
7 | CC1(C)CCC2(C(=O)O)C(O)CC3(C)C(=CCC4C5(C)CCC(OC6OCC(O)C(O)C6OC6OCC(O)C(O)C6OC6OCC(O)C(OC7OC(CO)C(O)C(O)C7O)C6O)C(C)(C)C5CCC43C)C2C1 (centres undefined) | 21 µM (inactive) | > 100 µM (inactive) | > 100 µM (inactive) | 28.1 µM (inactive) | 25.6 µM (inactive) | 24.7 µM (inactive) | > 100 µM (inactive) | > 100 µM (inactive) | > 100 µM (inactive) | > 100 µM (inactive) | 35.1 µM (inactive) | 20.8 µM (inactive) | 47.5 µM (inactive)
8 | COc1ccc2c(c1)/C(=C/CCN(C)C)c1ccccc1S2 | > 100 µM (inactive) | > 100 µM (inactive) | 16.2 µM (inactive) | 33.4 µM (inactive) | 46.1 µM (inactive) | 48.5 µM (inactive) | – | – | > 100 µM (inactive) | > 100 µM (inactive) | > 100 µM (inactive) | 43.3 µM (inactive) | 95.5 µM (inactive)
9 | Cc1ccc(S(=O)(=O)N/N=C/c2c(O)ccc3ccccc23)cc1 | 30.5 µM (inactive) | 45.8 µM (inactive) | 31.8 µM (inactive) | 17.5 µM (inactive) | 18.3 µM (inactive) | 43.4 µM (inactive) | 16.1 µM (inactive) | 17.9 µM (inactive) | 26.3 µM (inactive) | 29 µM (inactive) | 23.9 µM (inactive) | 27.6 µM (inactive) | 32.1 µM (inactive)
10 | COc1cc(Nc2nc3ccc(C(F)(F)F)cc3nc2C(=O)O)cc(OC)c1OC | 27.8 µM (inactive) | 22.8 µM (inactive) | 34.4 µM (inactive) | 16.9 µM (inactive) | 17.9 µM (inactive) | 31.3 µM (inactive) | 31.4 µM (inactive) | 24.8 µM (inactive) | 21.2 µM (inactive) | 28.5 µM (inactive) | 27.4 µM (inactive) | 19.3 µM (inactive) | 19.1 µM (inactive)
11 | CCCCCCCNC(P(=O)(O)O)P(=O)(O)O | > 100 µM (inactive) | > 100 µM (inactive) | 97.3 µM (inactive) | 34 µM (inactive) | > 100 µM (inactive) | > 100 µM (inactive) | > 100 µM (inactive) | > 100 µM (inactive) | > 100 µM (inactive) | > 100 µM (inactive) | > 100 µM (inactive) | > 100 µM (inactive) | > 100 µM (inactive)
